Data set [1] relates to α-myosin sensitized splenic cells. Nature of the data set: Testing the antigenicity of T cell epitopes (stimulation index, 3H-thymidine incorporation). It counts as cell-based, DR4 mice. The settings on record: for stimulation index: 3H-thymidine incorporation, peptides 30, 3 and 0.3 μg/ml, screening repeated three times, FIG. 8; for stimulation at the lowest concentration: 0.3 μg/ml. On the procedure:
The antigenicity of predicted peptides was assessed T cell proliferation against human cardiac myosin was measured by comparison of their stimulation index determined by 3H-thymidine incorporation assay (in brief: cells were pulsed with ^3H-Thymidine for 18 hours at the same conditions by adding 25 μl of diluted ^3H-Tymidine solution in RPMI to each well (final concentration 0.5 μCi/well). Finally, the cells were kept at −20 C.° at least overnight until ready to harvest. After thawing the plates, the cells were harvested onto glass fibre filters (Cox Scientific) using a Combo Cell Harvester (Skatron). Then the filters were soaked in Betaplate Scint liquid scintillation cocktail (Perkin Elmer) and sealed into sample bags (Perkin Elmer). Finally, the sealed bags containing the filters were placed into cassettes and the amount of scintillation was read using 1450 Microbeta Liquid Scintillation Counter (Perkin Elmer) in order to determine the level of ^3H-tymidine incorporation.). The α-myosin sensitized splenic cells were challenged with each peptide (GenScript (USA), peptide concentrations were 30, 3 and 0.3 μg/ml) or whole myosin (30 μg/ml).
Background: Uptake of a labelled nucleoside into DNA is a usual measure of proliferation.

Data set [2] concerns circulating anti-myosin antibodies. Nature of the data set: ELISA of circulating anti-myosin antibody levels in EAM DR4 mice. Format: in vivo. As to conditions: EAM induction, n=5. On the procedure:
(§1) Appropriate amount of myosin extract was diluted to the desired volume with PBS, then mixed with equal volume of complete Freund's adjuvant (CFA; Difco) containing 8 mg/ml of heat-killed Mycobacterium Tuberculosis (hkMTB; Difco). The mixture was sonicated for 20 min, then mixed well by a 1 ml syringe until the emulsion became very thick and viscous. 100 μl of the emulsion was applied subcutaneously from tail base at a dose of 100 μg myosin/mouse. On day 0 and 2, 200 ng Pertussis toxin (Sigma Aldrich) in 0.5 ml of PBS was intraperitoneally injected to each mouse as a second adjuvant. In the first trial, the myosin and Pertussis toxin injections were repeated after a week. However, this second set of injections was excluded in later experiments to avoid induction of a too severe disease that might obscure any benefit of the peptide therapy. Control groups received PBS in hkMTB-boosted CFA (but without human cardiac myosin) as well as Pertussis toxin. The development of EAM was assessed by echocardiographic and histopathological measurements after 3 weeks from myosin injection. […]
After incubation with the alkaline phosphatase-conjugated antibodies, once again the plates were washed four times with PBST. […] Once the colour developed, the reaction was stopped by adding 50 μL of 2M NaOH (Sigma, UK) and the absorbance was measured using LT-5000MS ELISA Reader (Labtech) at a wavelength of 405 nm. […]
Background: An ELISA detects its analyte on a solid surface through an enzyme-linked reagent.

Data set [3] has as its system EAM induced DR4 mice. Description: Echocardiographic analysis of left ventricle function in EAM DR4 mice. Format: in vivo. As to conditions: n=5. On the procedure: (§2) Appropriate amount of myosin extract was diluted to the desired volume with PBS, then mixed with equal volume of complete Freund's adjuvant (CFA; Difco) containing 8 mg/ml of heat-killed Mycobacterium Tuberculosis (hkMTB; Difco). The mixture was sonicated for 20 min, then mixed well by a 1 ml syringe until the emulsion became very thick and viscous. 100 μl of the emulsion was applied subcutaneously from tail base at a dose of 100 μg myosin/mouse. On day 0 and 2, 200 ng Pertussis toxin (Sigma Aldrich) in 0.5 ml of PBS was intraperitoneally injected to each mouse as a second adjuvant. In the first trial, the myosin and Pertussis toxin injections were repeated after a week. However, this second set of injections was excluded in later experiments to avoid induction of a too severe disease that might obscure any benefit of the peptide therapy. Control groups received PBS in hkMTB-boosted CFA (but without human cardiac myosin) as well as Pertussis toxin. The development of EAM was assessed by echocardiographic and histopathological measurements after 3 weeks from myosin injection. Spleens were collected to measure cardiac myosin responsive T cell proliferation. Bloods were collected to measure circulating anti-myosin antibody levels.
At the end of the 3 week experiment, the mice were anesthetised by intraperitoneal injection of Tribromoethanol (Avertin; SigmaAldrich) at a dose of 250 mg/kg. The left ventricle functions and diameters were analysed using Vevo 770 high-frequency, high-resolution echocardiography system (Visual Sonics) just before terminating the mice. The anesthetised mice were laid supine and butted to a heated platform by surgical tape stripes. Chest hair were removed by applying hair removal cream and Aquasonic Clear ultrasound transmission gel (Parker Laboratories) was applied to the hairless chest. […]
(§3) 2 different combinations of peptides were used for the therapy. […] Mice were terminated 3 weeks after the myosin injection and disease development and adaptive immune responses against cardiac myosin were assessed.

For a further data set, the system named is DR4 mice. Format: in vivo. As to conditions: first trial, myosin and Pertussis toxin injections repeated after a week; after 3 weeks. The protocol:
as §1, with “However, this second set of injections was excluded in later experiments to avoid induction of a too severe disease that might obscure any benefit of the peptide therapy. Control groups received PBS in hkMTB-boosted CFA (but without human cardiac myosin) as well as Pertussis toxin.” left out
In our first trial, it was planned to follow disease progression using echocardiography at 3 and 6 weeks. However, sudden death occurred in 3 out of 5 mice in the α-myosin treated group after 3 weeks, whereas the animals in the control group were all healthy and no signs of myocarditis were detected in their hearts by echocardiographic measurements (data not shown). […]
Body weights of the mice were measured before the induction of EAM and at termination. […]

Data set [4] concerns EAM induced DR4 mice. Description: Histopathological analysis of myocarditis (H&E inflammatory cell infiltrate). As to conditions: EAM induction, p=0.0079, Fisher's exact test. It counts as in vivo. The protocol:
as §2
The heart was dissected and fixed for 24 hours in 10% (v/v) formalin in PBS for histological analyses. […]

The subject of data set [5] is cardiac myosin responsive T cell proliferation. Description: Anti-myosin T cell proliferation of splenocytes from EAM DR4 mice. Format: in vivo. The settings on record: EAM induction, FIG. 3. The protocol: as §1, with “However, this second set of injections was excluded in later experiments to avoid induction of a too severe disease that might obscure any benefit of the peptide therapy. Control groups received PBS in hkMTB-boosted CFA (but without human cardiac myosin) as well as Pertussis toxin.” left out
The splenocytes obtained from myosin immunised mice (as described herein) were cultured in 96 well plates in X-Vivo 15 media (Lonza) at a concentration of 5×10^5 cells/well. […] Finally, the cells were kept at −20 C.° at least overnight until ready to harvest. […]
as §3

Consider four substances from patent publication US20190300573A1, “HUMAN MYOSIN PEPTIDES” (APITOPE INTERNATIONAL NV, priority 2016, published 2019).

As for “PHIFSISDNAYQYML (T cell epitope peptide) [PL]”, the stimulation index entry in data set [1] is listed as “stronger stimulation than the rest of them”. Further, the “stimulation at the lowest concentration” value in data set [1] (second screening assay) was “provided stimulation even at the lowest concentration”.

With “VNPYKWLPVYNAEVV (T cell epitope peptide)”, in data set [1], the stimulation index result was “stronger stimulation than the rest of them”.

As to “Whole myosin: myosin extracted from human heart left ventricular wall; immunogen for EAM induction and stimulus in proliferation assays”, in data set [2] (pmax=0.0008, FIG. 4A), the “circulating anti-myosin IgG1 levels” value is listed as “increased significantly”. Further, the “circulating anti-myosin IgG2c levels” value in data set [2] (pmax=0.02, FIG. 4B) was “significantly increased”. Also, the “percentage of ejection fraction” value in the data set with EAM induced DR4 mice [3] (EAM induction vs control with only CFA and Pertussis toxin, p=0.003) is listed as “significant decrease”. For the same substance, in the data set with EAM induced DR4 mice [3] (EAM induction vs control with only CFA and Pertussis toxin, p=0.006), the fractional shortening entry is recorded as “significant decrease”. In addition, the “left ventricle systolic dimension” value in the data set with EAM induced DR4 mice [3] (EAM induction, p=0.039, FIG. 6B) is “significant increase”. Also, the sudden death in the data set on DR4 mice was 3 out of 5. For the same substance, the “mice with inflammation and tissue damage in the heart” value in the data set on EAM induced DR4 mice [4] was 5 out of 5. The “increase in T cell proliferation against cardiac myosin” value in data set [5] (100 μg myosin in CFA + Pertussis toxin, vs control group with CFA and Pertussis toxin only) is reported as 5-6 fold. The “anti-myosin T cell proliferation” value in data set [5] (myosin 0.2, 2.0, 20 μg/ml in culture, n=5) is listed as “increased”. For the same substance, in data set [1] (second screening assay), the stimulation amounted to 2 fold.

In the case of “YHIFYQILSNKKPEL (T cell epitope peptide) [YL]”, the stimulation index result in data set [1] is recorded as “consistently the strongest stimulation amongst the peptides”. The “stimulation at the lowest concentration” value in data set [1] (second screening assay) is on record as “provided stimulation even at the lowest concentration”.
